Values belong to the compound of their own block, whether it stands above or below them. The source made the active and inactive calls.
Experiments:
[1] = target: T1, Apoptotic protease-activating factor 1 (Homo sapiens, UniProt O14727); type: functional
T1 sequence (O14727 whole entry): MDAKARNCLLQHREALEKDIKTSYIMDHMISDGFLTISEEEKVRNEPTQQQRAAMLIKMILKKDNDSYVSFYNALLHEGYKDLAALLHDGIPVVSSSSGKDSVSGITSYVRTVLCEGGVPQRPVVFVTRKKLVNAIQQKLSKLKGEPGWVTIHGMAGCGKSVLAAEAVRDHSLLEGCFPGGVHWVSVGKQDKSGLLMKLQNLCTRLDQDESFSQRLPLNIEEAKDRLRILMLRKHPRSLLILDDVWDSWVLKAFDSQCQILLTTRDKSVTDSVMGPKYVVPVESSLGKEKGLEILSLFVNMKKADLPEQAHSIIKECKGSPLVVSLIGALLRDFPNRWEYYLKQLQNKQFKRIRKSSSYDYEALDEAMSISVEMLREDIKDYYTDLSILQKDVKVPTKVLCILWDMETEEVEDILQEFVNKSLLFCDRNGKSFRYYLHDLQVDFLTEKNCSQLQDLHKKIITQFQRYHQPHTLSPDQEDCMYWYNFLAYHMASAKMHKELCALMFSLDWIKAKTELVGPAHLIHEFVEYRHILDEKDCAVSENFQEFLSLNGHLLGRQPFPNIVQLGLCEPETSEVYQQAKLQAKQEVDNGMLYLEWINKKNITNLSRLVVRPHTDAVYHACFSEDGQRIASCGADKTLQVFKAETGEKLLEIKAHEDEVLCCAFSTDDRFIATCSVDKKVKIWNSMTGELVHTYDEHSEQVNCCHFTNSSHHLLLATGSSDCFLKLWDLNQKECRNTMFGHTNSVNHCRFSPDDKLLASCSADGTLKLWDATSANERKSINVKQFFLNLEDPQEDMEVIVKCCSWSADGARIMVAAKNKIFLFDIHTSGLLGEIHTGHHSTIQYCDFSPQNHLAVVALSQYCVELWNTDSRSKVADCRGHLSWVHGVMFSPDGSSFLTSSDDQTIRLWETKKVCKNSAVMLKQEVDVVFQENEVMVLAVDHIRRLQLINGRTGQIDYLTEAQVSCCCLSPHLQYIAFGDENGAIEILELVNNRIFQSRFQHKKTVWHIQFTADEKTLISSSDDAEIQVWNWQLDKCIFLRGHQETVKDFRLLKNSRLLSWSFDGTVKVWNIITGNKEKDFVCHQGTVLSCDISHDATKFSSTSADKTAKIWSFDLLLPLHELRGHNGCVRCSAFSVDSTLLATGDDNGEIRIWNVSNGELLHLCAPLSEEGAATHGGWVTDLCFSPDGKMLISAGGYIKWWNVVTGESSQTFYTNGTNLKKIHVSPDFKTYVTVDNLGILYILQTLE

[2] = AlphaScreen signal interference compounds, dose response, artefact control for ARNT-TACC3 interaction inhibitor project, biochemical, luminescence, cherry-pick (AID 651705); type: functional;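 note: AlphaScreen bead proximity signal that flags compounds interfering with the detection technology; potency reflects signal decrease which marks the compound as an assay artifact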
HEK293 [3] = test: inhibitors of LMP1-driven NF-kB reporter, dose response, cell-based, HEK293, luciferase, cherry-pick (AID 588343); type: functional; conditions: Homo sapiens
[4] = target: T2, Sentrin-specific protease 6 (Homo sapiens, UniProt Q9GZR1); type: functional;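 note: Luminescence-based dose-response confirmatory assay of SENP6 inhibition, following up an ultra-high-throughput screen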
T2 sequence (Q9GZR1 whole entry): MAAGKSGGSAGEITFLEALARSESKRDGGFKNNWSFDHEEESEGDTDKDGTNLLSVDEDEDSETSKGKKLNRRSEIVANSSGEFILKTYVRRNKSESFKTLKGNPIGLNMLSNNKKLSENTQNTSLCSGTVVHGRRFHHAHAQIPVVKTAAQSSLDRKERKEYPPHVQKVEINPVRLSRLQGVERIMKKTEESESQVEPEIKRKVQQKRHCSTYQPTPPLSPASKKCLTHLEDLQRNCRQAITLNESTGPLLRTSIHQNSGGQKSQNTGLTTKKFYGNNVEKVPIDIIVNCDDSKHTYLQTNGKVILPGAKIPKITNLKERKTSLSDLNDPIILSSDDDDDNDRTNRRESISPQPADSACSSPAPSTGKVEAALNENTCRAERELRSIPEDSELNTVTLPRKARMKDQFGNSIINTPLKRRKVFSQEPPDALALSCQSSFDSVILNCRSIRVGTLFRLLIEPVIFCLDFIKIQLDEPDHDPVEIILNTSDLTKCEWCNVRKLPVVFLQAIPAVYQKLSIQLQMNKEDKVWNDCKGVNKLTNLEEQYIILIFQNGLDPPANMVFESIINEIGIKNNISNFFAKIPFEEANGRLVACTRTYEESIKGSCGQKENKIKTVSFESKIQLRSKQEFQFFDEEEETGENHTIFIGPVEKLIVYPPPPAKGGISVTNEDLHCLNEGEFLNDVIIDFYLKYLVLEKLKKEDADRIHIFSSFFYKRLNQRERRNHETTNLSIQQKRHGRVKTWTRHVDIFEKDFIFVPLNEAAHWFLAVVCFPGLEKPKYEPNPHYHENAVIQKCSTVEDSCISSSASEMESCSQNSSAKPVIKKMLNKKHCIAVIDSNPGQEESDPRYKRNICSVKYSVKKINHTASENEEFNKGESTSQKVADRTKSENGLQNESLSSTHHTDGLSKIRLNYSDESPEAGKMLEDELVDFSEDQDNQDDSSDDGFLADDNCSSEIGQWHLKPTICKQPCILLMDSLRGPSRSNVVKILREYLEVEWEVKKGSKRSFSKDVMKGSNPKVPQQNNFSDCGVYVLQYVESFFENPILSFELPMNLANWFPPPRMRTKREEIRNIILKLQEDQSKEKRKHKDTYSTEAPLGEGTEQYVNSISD

[5] = target: T3, Sentrin-specific protease 8 (Homo sapiens, UniProt Q96LD8); type: functional;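 note: luminescence read-out of SENP8 inhibition, dose-response confirmation following an ultra-high-throughput screen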
T3 sequence (Q96LD8 whole entry): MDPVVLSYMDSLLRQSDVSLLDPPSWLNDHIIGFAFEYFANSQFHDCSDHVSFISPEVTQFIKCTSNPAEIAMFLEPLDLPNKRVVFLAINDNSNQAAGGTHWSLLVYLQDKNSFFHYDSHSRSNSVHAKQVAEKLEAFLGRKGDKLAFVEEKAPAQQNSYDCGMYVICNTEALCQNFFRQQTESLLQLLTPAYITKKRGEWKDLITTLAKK

[6] = target: T4, Sentrin-specific protease 7 (Homo sapiens, UniProt Q9BQF6); type: functional;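 note: Luminescence-based dose-response confirmation of ultra-high-throughput screening hits, measuring inhibition of SENP7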
T4 sequence (Q9BQF6 whole entry): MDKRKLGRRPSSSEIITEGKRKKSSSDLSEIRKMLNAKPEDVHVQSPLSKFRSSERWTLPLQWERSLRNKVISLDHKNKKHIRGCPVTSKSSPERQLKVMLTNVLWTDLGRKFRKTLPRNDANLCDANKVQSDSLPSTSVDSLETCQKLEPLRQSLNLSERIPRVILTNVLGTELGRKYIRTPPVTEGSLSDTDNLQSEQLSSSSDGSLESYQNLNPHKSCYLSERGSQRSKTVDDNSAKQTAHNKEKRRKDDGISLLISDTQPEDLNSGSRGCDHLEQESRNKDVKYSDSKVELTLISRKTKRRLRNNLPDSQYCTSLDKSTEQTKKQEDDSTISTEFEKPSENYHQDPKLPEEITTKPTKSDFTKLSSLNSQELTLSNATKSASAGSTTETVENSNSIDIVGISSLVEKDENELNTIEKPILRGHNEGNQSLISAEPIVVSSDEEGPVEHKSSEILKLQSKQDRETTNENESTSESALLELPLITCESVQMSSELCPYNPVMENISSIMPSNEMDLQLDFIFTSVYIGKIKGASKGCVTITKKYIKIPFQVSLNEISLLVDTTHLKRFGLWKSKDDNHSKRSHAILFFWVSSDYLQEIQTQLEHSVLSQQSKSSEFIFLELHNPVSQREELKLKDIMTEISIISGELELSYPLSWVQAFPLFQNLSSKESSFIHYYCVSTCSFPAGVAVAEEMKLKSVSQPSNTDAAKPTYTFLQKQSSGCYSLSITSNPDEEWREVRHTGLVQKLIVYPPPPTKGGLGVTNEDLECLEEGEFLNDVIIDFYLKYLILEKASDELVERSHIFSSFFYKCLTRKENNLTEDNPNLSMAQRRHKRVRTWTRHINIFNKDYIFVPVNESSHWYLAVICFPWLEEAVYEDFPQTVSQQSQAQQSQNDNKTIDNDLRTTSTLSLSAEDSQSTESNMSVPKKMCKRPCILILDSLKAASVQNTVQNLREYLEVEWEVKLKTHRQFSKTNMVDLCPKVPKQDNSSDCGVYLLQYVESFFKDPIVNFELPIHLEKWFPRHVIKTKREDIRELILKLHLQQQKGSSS

Caspase-3 = target: T5, Caspase-3 (Homo sapiens, UniProt P42574); type: functional;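 note: Dose-response selectivity test against caspase-3 for candidate inhibitors of sentrin-specific proteases (SENPs)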
T5 sequence (P42574 whole entry): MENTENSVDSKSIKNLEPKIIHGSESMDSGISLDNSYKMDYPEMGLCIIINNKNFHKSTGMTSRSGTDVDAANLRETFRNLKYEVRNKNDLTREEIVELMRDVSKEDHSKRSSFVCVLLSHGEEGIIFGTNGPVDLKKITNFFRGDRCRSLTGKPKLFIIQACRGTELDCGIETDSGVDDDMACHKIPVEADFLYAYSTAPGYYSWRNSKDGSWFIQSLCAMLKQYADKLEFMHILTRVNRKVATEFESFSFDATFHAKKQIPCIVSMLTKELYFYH

[7] = target: T6, Carboxy-terminal domain RNA polymerase II polypeptide A small phosphatase 1 (Homo sapiens, UniProt Q9GZU7); test: inhibitors of CTDSP1, concentration-response testing, biochemical assay, absorbance-based, actives from ultra-high-throughput screening (AID 540297); type: functional
T6 sequence (Q9GZU7 whole entry): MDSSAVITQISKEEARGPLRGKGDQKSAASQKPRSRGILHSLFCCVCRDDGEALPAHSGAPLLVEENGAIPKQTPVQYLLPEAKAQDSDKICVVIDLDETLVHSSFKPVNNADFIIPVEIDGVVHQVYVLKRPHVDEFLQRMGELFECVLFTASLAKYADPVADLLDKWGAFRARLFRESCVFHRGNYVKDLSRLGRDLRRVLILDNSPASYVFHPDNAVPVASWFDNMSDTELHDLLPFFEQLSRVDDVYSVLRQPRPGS

[8] = cytotoxicity in HEK-293T cells, dose response, cytotoxicity control for TCR NF-kB inhibitor project, luminescence, T-cell screen hits (AID 489026); type: functional, cell-based;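 note: cells exposed to compound about 14 hours before the viability readout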
HEK293 [9] = test: HEK cell cytotoxicity by LDH release, dose response, cytotoxicity control for IDE activator project, fluorescence, HEK cells (AID 588440); type: functional, cell-based; conditions: Homo sapiens;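 note: cytotoxicity by LDH release measuring loss of membrane integrity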
HEK293 [10] = test: optical interference in Abeta FP readout, dose response, artefact control for IDE activator project, biochemical, fluorescence polarization (AID 588442); type: functional, cell-based; conditions: Homo sapiens
Insulin-degrading enzyme [11] = target: T7, Insulin-degrading enzyme (Homo sapiens, UniProt P14735); test: activators of recombinant IDE enzyme, dose response, counter-screen for IDE activator project, biochemical, fluorescence polarization (AID 588681)
T7 sequence (P14735 whole entry): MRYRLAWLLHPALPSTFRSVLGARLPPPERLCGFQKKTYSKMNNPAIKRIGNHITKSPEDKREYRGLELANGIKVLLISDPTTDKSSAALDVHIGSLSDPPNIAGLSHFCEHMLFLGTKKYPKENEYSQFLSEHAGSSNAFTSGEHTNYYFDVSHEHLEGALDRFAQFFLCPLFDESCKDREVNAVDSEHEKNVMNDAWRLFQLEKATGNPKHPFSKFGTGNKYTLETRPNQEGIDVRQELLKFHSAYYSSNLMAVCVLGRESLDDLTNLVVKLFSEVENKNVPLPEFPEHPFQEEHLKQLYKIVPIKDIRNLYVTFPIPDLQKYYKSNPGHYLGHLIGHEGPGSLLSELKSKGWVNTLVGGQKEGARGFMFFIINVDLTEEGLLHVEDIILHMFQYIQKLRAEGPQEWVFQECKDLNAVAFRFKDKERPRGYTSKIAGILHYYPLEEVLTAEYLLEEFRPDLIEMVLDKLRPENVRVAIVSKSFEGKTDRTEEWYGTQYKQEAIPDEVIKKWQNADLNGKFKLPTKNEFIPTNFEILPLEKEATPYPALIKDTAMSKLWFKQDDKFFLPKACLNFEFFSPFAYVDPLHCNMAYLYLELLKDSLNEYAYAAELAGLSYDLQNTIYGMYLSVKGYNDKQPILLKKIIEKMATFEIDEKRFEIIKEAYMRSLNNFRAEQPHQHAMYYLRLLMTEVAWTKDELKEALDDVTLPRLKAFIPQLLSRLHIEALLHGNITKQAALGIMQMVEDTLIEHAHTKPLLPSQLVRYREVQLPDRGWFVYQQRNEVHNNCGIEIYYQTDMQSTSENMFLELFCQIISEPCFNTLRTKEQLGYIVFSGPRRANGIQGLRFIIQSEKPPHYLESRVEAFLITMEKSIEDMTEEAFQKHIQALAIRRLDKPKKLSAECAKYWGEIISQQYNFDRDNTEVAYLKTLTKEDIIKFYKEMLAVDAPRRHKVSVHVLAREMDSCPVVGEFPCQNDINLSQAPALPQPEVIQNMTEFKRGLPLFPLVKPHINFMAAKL

Insulin-degrading enzyme [12] = target: T7, Insulin-degrading enzyme; test: activators of endogenous IDE in HEK cells, dose response, cell-based, fluorescence polarization (AID 588439); type: functional

IC50 [1]: > 100 µM (inactive)
SMILES: CCCN(CC(=O)Nc1ccccc1C)C(=O)CCCOc1ccc(Br)cc1

SMILES: Cc1nc2ncccn2c1-c1csc(Nc2ccccc2)n1
AC50 [2]: 93.5 µM (active) | AC50 (HEK293 [3]): 28.1 µM (active)

SMILES: Clc1ccc(-c2nnc(NC3=NCCCCC3)o2)cc1
IC50 [4]: 30.1 µM (active) | IC50 [5]: 29.8 µM (active) | IC50 [6]: 15.4 µM (active) | IC50 (Caspase-3): 15 µM (active) | AC50 (HEK293 [3]): 1.84 µM (active)

SMILES: COc1cc2nc(NC(=O)c3ccco3)sc(=O)c2cc1OC
IC50 [7]: 10.5 µM (active) | IC50 [8]: > 80 µM (inactive) | AC50 (HEK293 [3]): 6.84 µM (active)

SMILES: CSc1ccccc1OCc1cc(C(=O)NCCn2nc(C)cc2C)no1
IC50 (HEK293 [9]): > 89.2 µM (inactive) | EC50 (HEK293 [10]): > 54.7 µM (inactive) | EC50 (Insulin-degrading enzyme [11]): > 54.7 µM (inactive) | EC50 (Insulin-degrading enzyme [12]): > 54.7 µM (inactive)
